In brackets after ≈: the same amount, converted by molar mass.

14 molecules from ChEMBL document CHEMBL4699468, “Structural hybridization as a facile approach to new drug candidates” (Bioorg Med Chem Lett, 2020) can be followed below.

The subject of experiment [1] is Plasmodium falciparum. The experiment in a line: Antiplasmodial activity against Plasmodium falciparum W2. The class given is functional, organism-based.
In experiment [2] the test system is Plasmodium falciparum. Put plainly: Antiplasmodial activity against chloroquine-resistant Plasmodium falciparum Dd2 infected in human erythrocytes incubated for 72 hrs by SYBR green staining based fluorescence assay. The conditions noted are these: Dd2, 72 h. It is filed as functional, organism-based.
For experiment [3], the system named is Plasmodium falciparum. The experiment in a line: Antiplasmodial activity against chloroquine-resistant Plasmodium falciparum K1 infected in human erythrocytes incubated for 72 hrs by SYBR green staining based fluorescence assay. It is filed as functional, organism-based. As to conditions: K1, 72 h.
Experiment [4] concerns Pseudomonas aeruginosa. The experiment in a line: Antibacterial activity against Pseudomonas aeruginosa ATCC 27853 incubated for 24 hrs by CLSI-based macrobroth dilution method. It is filed as functional.
For the next experiment, the system named is A549. The experiment in a line: Growth inhibition of human A549 cells incubated for 72 hrs by MTT assay. It is filed as functional, cell-based. The conditions noted are these: A549, 72 h. (Formazan colour is commonly taken as a measure of viable cells.)
A further experiment deals with HT-29. Put plainly: Growth inhibition of human HT-29 cells incubated for 72 hrs by MTT assay. The class given is functional, cell-based. As to conditions: HT-29, 72 h.
The next experiment deals with MDA-MB-231. Put plainly: Growth inhibition of human MDA-MBA-231 cells incubated for 72 hrs by MTT assay. The conditions noted are these: MDA-MB-231, 72 h. The class given is functional, cell-based.
The next experiment relates to Klebsiella aerogenes. Put plainly: Antibacterial activity against Klebsiella aerogenes incubated for 18 hrs by agar dilution method. It is filed as functional. (In agar dilution the substance is mixed into plates at graded concentrations.)
A further experiment deals with Citrobacter freundii. The experiment in a line: Antibacterial activity against Citrobacter freundii incubated for 18 hrs by agar dilution method. The class given is functional.
Another experiment deals with Enterobacter cloacae. The experiment in a line: Antibacterial activity against Enterobacter cloacae incubated for 18 hrs by agar dilution method. The class given is functional.
In a further experiment the test system is Hafnia alvei. The experiment in a line: Antibacterial activity against Enterobacter hafniae incubated for 18 hrs by agar dilution method. It is filed as functional.
Another experiment deals with Providencia rettgeri. The experiment in a line: Antibacterial activity against Proteus rettgeri incubated for 18 hrs by agar dilution method. It is filed as functional.
Experiment [5] relates to Morganella morganii. The experiment in a line: Antibacterial activity against Proteus morganii incubated for 18 hrs by agar dilution method. It is filed as functional.
For experiment [6], the system named is Morganella morganii. Put plainly: Antibacterial activity against Proteus morganii NCTC235 incubated for 18 hrs by agar dilution method. It is filed as functional.
Another experiment has as its system Proteus mirabilis. The experiment in a line: Antibacterial activity against Proteus mirabilis 431 incubated for 18 hrs by agar dilution method. The class given is functional.
The test system of experiment [7] is Staphylococcus aureus. Put plainly: Antibacterial activity against Staphylococcus aureus incubated for 18 hrs by agar dilution method. It is filed as functional.
In experiment [8] the test system is Escherichia coli. The experiment in a line: Antibacterial activity against Escherichia coli incubated for 18 hrs by agar dilution method. It is filed as functional.
The test system of a further experiment is MCF7. Put plainly: Cytotoxicity against human MCF7 by microculture tetrazolium assay. The class given is functional, cell-based.
The subject of experiment [9] is Pseudomonas aeruginosa. The experiment in a line: Antibacterial activity against Pseudomonas aeruginosa ATCC 91433. It is filed as functional.
The test system of experiment [10] is Escherichia coli. Put plainly: Antibacterial activity against Escherichia coli. It is filed as functional.
Experiment [11] relates to Plasmodium falciparum. Put plainly: Antiplasmodial activity against […] Plasmodium falciparum 3D7 infected in human erythrocytes incubated for 72 hrs by SYBR green staining based fluorescence assay. It is filed as functional, organism-based. As to conditions: 3D7, 72 h.
The next experiment concerns Human betaherpesvirus 5. The experiment in a line: Antiviral activity against GFP-transfected Human cytomegalovirus AD169 infected in human HFF cells measured after 7 days by GFP fluorometry. The class given is functional, cell-based. As to conditions: Human betaherpesvirus 5, AD169, HFF, 168 h.
Experiment [12] concerns Staphylococcus aureus. Put plainly: Antibacterial activity against Staphylococcus aureus. The class given is functional.

A word on the IC50: it is the concentration needed to halve the response being measured. Read a high IC50 as a need for much substance. In the experiment with Plasmodium falciparum [1], `COc1cc(NCCCCn2c(-c3ccc(F)cc3)c(-c3ccccc3)c(C(=O)Nc3ccccc3)c2C(C)C)c2ncccc2c1` yielded a half-inhibitory concentration (IC50) of 1410 nM.

In general, EC50 refers to the concentration that produces a half-maximal response. Low values mean an effect from little substance, high ones a need for much substance. `C[C@H]1[C@@H](OCc2cn(-c3ccnc4cc(Cl)ccc34)nn2)O[C@@H]2O[C@@]3(C)CC[C@H]4[C@H](C)CC[C@@H]1[C@@]24OO3`: the EC50 with Plasmodium falciparum [2] worked out at 5.9 nM; in the experiment on Plasmodium falciparum [3], 4.3 nM.

A word on the MIC: it is the least concentration at which growth counts as inhibited. The low end stands for greater potency, the high end for weaker potency. Molecule `NC[C@H]1O[C@H](O[C@H]2[C@H](OCCCCCCCCCCCCN3CCN(c4cc5c(cc4F)c(=O)c(C(=O)O)cn5C4CC4)CC3)[C@@H](O[C@@H]3O[C@H](CO)[C@@H](O)[C@H](N)[C@H]3O)[C@H](N)C[C@@H]2N)[C@H](N)[C@@H](O)[C@@H]1O` came in with a minimal inhibitory concentration (MIC) against Pseudomonas aeruginosa [4] of 4 µg/mL (≈ 4.08 µM).

On to `C[C@H]1[C@@H](OCCNC(=Nc2cc(C(F)(F)F)ccc2Cl)NCCO[C@H]2O[C@@H]3O[C@]4(C)CC[C@H]5[C@H](C)CC[C@@H]([C@H]2C)[C@@]35OO4)O[C@@H]2O[C@]3(C)CC[C@H]4[C@H](C)CC[C@@H]1[C@@]24OO3`, for which the EC50 was found to be 240 nM in the experiment on A549, 1400 nM in the experiment with HT-29 and 1420 nM in the experiment on MDA-MB-231.

Turning to `O=C(O)C1=C(CSc2cccc[n+]2[O-])CS[C@@H]2[C@H](NC(=O)[C@H](O)c3ccccc3)C(=O)N12`, the MIC in the experiment with Klebsiella aerogenes, in the experiment on Citrobacter freundii, in the experiment with Enterobacter cloacae, against Hafnia alvei, in the experiment on Providencia rettgeri and in the experiment on Morganella morganii [5] was 0.5 µg/mL (≈ 1.06 µM) each time. In addition, the minimum inhibitory concentration (MIC) in the experiment with Morganella morganii [6], in the experiment with Proteus mirabilis, in the experiment with Staphylococcus aureus [7] and in the experiment with Escherichia coli [8] was 0.5 µg/mL (≈ 1.06 µM) in each case.

`CCN(CC)CCCC(C)Nc1ccnc2cc(Cl)ccc12` (stereo not given) [CHLOROQUINE]: the EC50 in the experiment with Plasmodium falciparum [2] was found to be 165 nM; in the experiment on Plasmodium falciparum [3] it was 303 nM.

Consider `C[C@H]1[C@H](OC(=O)CCC(=O)OCc2cn(-c3ccnc4cc(Cl)ccc34)nn2)O[C@@H]2O[C@@]3(C)CC[C@H]4[C@H](C)CC[C@@H]1[C@@]24OO3`, for which the EC50 with Plasmodium falciparum [2] was 4.2 nM; in the experiment on Plasmodium falciparum [3] it was 1.8 nM.

Molecule `C[C@H]1[C@@H](CCS(=O)(=O)CC[C@H]2O[C@@H]3O[C@]4(C)CC[C@H]5[C@H](C)CC[C@@H]([C@H]2C)[C@@]35OO4)O[C@@H]2O[C@]3(C)CC[C@H]4[C@H](C)CC[C@@H]1[C@@]24OO3` displayed a concentration for a half-maximal effect (EC50) with MCF7 of 25 nM.

Molecule `NCCCCC(N)C(=O)N(CCCCCCCCCCCCO[C@@H]1[C@@H](O[C@@H]2O[C@H](CO)[C@@H](O)[C@H](N)[C@H]2O)[C@H](N)C[C@H](N)[C@H]1O[C@H]1O[C@H](CN)[C@@H](O)[C@H](O)[C@H]1N)Cc1c2ccccc2c(Cl)c2ccccc12` (stereo not given in full) registered an MIC in the experiment on Pseudomonas aeruginosa [9] of 8 µg/mL (≈ 7.85 µM).

As for `N[C@@H](CCl)C(=O)N[C@@H](CCl)C(=O)OCC1=C(C(=O)O)N2C(=O)[C@@H](NC(=O)Cc3cccs3)[C@H]2SC1`, in the experiment with Escherichia coli [10], the minimum inhibitory concentration (MIC) was determined as 7.05 µg/mL (≈ 12.5 µM).

As to `C[C@H]1[C@H](OC(=O)CCC(=O)OCCOC(=O)CC(=O)OCCOC(=O)CCC(=O)O[C@@H]2O[C@@H]3O[C@@]4(C)CC[C@H]5[C@H](C)CC[C@@H]([C@H]2C)[C@@]35OO4)O[C@@H]2O[C@@]3(C)CC[C@H]4[C@H](C)CC[C@@H]1[C@@]24OO3`, a half-maximal response in the experiment with Plasmodium falciparum [11] (EC50) required 1.4 nM.

In the case of `C[C@H]1[C@H](OC(=O)CCC(=O)NCCNc2ccnc3cc(Cl)ccc23)O[C@@H]2O[C@@]3(C)CC[C@H]4[C@H](C)CC[C@@H]1[C@@]24OO3`, the values for the concentration giving a half-maximal response (EC50) in the experiment with Plasmodium falciparum [2] and in the experiment with Plasmodium falciparum [3] were 1 nM and 0.78 nM, respectively.

With `C[C@H]1[C@H](OC(=O)CCC(=O)OCCCNc2ncnc3c(C#N)c(-c4ccc(C(F)(F)F)cc4)cc(-c4ccc(C(F)(F)F)cc4)c23)O[C@@H]2O[C@]3(C)CC[C@H]4[C@H](C)CC[C@@H]1[C@@]24OO3`, in the experiment on Human betaherpesvirus 5, the midpoint of the response, the EC50, lay at 100 nM.

For the molecule `COc1cc(Cc2cnc(N)nc2N)cc(OC)c1OCCN1CCN(c2cc3c(cc2F)c(=O)c(C(=O)O)cn3C2CC2)CC1`, the minimum inhibitory concentration (MIC) against Staphylococcus aureus [12] is 0.5 µg/mL (≈ 0.789 µM); in the experiment with Escherichia coli [10] it was 1 µg/mL (≈ 1.58 µM).
